Activity calls are given as the source filed them. The calls are words filed in the database; no cut-off is given here.
Legend:
Cytochrome P450 3A4 = Cytochrome P450 3A4 (Homo sapiens, UniProt P08684); assay: Competitive inhibition of CYP3A4 (unknown origin); assay type: ADME
Rattus norvegicus [1] = assay: Acute toxicity in Sprague-Dawley rat up to 1000 mg/kg; assay type: organism-based; design: dose 1000 mg/kg; conditions: in vivo
[2] = molecular target: T1, C-X-C chemokine receptor type 3 (Homo sapiens) (UniProt P49682); assay: Antagonist activity at CXCR3 (unknown origin) assessed as inhibition of calcium flux at 10 uM; assay type: functional
T1 sequence (whole entry): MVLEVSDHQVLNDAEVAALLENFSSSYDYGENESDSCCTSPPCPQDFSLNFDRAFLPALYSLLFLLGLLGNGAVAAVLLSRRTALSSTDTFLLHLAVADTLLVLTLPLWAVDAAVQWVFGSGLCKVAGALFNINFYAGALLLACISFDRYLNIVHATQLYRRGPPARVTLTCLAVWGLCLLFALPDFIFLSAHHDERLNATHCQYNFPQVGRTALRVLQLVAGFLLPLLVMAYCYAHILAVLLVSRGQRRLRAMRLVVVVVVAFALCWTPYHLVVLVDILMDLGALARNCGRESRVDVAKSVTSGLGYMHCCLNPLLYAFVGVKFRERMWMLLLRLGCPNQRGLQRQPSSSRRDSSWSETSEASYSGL

[3] = molecular target: T2, C-C chemokine receptor type 10 (Homo sapiens) (UniProt P46092); assay: Binding affinity to CCR10 (unknown origin) at 10 uM by radioligand displacement assay
T2 sequence (whole entry): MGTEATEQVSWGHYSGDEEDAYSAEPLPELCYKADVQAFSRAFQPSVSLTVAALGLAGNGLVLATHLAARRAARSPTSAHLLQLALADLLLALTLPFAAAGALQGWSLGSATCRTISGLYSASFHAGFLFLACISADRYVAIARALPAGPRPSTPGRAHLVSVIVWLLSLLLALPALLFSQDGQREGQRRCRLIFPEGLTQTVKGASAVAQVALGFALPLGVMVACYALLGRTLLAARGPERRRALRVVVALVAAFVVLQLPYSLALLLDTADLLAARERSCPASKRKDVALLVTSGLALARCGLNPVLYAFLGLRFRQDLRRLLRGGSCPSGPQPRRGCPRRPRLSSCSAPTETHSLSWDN

[4] = molecular target: T2, C-C chemokine receptor type 10 (Homo sapiens); assay: Antagonist activity at CCR10 (unknown origin) assessed as inhibition of calcium flux at 10 uM; assay type: functional
[5] = molecular target: T3, C-C chemokine receptor-like 2 (Homo sapiens) (UniProt O00421); assay: Antagonist activity at CCR11 (unknown origin) assessed as inhibition of chemotaxis at 10 uM
T3 sequence (whole entry): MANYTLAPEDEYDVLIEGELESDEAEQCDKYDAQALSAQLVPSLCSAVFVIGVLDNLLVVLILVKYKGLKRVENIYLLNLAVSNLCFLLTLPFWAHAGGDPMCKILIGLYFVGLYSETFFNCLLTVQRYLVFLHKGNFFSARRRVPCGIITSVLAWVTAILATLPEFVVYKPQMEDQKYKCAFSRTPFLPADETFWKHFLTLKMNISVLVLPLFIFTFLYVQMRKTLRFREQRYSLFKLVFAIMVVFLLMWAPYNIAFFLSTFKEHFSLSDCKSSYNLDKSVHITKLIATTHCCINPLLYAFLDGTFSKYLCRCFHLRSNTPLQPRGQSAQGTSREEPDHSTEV

Rattus norvegicus [6] = assay: Toxicity in Sprague-Dawley rat assessed as effect on complete blood cell count at 70 to 360 mg/kg, po after 7 days; assay type: organism-based; design: dose 70-360 mg/kg, route oral; conditions: in vivo, 168 h
[7] = molecular target: C-X-C chemokine receptor type 4 (Homo sapiens) (UniProt P61073); assay: Antagonist activity at CXCR4 (unknown origin) assessed as inhibition of calcium flux at 10 uM; assay type: functional
Chain of C-X-C chemokine receptor type 4 (Homo sapiens) (P61073 whole entry): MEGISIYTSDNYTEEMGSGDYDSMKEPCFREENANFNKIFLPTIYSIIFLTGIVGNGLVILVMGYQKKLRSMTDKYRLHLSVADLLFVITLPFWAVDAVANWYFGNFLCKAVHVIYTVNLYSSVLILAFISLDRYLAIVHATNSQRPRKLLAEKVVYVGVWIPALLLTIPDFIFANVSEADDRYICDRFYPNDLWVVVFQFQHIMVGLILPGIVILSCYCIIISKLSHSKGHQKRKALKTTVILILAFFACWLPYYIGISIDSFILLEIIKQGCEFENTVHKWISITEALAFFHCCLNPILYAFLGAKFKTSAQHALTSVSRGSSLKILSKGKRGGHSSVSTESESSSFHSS

[8] = molecular target: T4, C-X-C chemokine receptor type 5 (Homo sapiens) (UniProt P32302); assay: Antagonist activity at CXCR5 (unknown origin) assessed as inhibition of calcium flux at 10 uM; assay type: functional
T4 sequence (whole entry): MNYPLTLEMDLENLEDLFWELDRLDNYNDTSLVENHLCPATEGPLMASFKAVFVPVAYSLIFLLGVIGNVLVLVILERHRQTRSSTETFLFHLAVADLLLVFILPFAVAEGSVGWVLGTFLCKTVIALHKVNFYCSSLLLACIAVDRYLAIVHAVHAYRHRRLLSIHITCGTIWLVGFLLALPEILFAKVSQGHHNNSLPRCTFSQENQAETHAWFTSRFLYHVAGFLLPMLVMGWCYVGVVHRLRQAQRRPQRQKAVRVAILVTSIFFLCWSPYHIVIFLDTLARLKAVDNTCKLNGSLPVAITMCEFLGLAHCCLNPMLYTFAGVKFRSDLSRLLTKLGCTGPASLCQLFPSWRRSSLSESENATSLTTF

[9] = molecular target: T5, C-C chemokine receptor type 4 (Homo sapiens) (UniProt P51679); assay: Antagonist activity at CCR4 (unknown origin) assessed as inhibition of chemotaxis at 10 uM
T5 sequence (whole entry): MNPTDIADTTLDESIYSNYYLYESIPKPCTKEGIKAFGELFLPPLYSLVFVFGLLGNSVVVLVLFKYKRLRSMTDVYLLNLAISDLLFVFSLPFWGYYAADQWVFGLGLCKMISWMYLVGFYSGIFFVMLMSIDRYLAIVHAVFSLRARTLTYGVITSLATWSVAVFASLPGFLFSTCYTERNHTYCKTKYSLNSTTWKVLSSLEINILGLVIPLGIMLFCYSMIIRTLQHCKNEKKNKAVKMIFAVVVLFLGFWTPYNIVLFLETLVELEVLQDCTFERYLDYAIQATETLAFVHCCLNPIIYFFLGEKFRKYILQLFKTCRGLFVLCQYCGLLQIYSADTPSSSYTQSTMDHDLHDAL

Rattus norvegicus [10] = assay: Toxicity in Sprague-Dawley rat assessed as effect on body weight at 70 to 360 mg/kg, po after 7 days; assay type: organism-based; design: dose 70-360 mg/kg, route oral; conditions: in vivo, 168 h
[11] = molecular target: T6, G protein-coupled receptor (Human herpesvirus 8) (UniProt Q76SF8); assay: Antagonist activity at HHV8 ORF74 assessed as inhibition of calcium flux at 10 uM; assay type: functional; conditions: Human gammaherpesvirus 8
T6 sequence (whole entry): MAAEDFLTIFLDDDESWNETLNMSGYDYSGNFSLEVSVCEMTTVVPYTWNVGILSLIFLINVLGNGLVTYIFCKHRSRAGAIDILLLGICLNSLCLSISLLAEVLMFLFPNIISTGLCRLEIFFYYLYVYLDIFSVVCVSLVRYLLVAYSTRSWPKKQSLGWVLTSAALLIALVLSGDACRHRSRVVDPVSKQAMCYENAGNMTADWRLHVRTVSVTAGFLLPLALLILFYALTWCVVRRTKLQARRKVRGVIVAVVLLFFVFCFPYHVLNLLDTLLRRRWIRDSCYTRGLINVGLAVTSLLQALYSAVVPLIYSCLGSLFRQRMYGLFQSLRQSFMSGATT

[12] = molecular target: T3, C-C chemokine receptor-like 2 (Homo sapiens); assay: Binding affinity to CCR11 (unknown origin) at 10 uM by radioligand displacement assay
[13] = molecular target: C-C chemokine receptor type 8 (Homo sapiens) (UniProt P51685); assay: Antagonist activity at CCR8 (unknown origin) assessed as inhibition of chemotaxis at 10 uM
Chain of C-C chemokine receptor type 8 (Homo sapiens) (P51685 whole entry): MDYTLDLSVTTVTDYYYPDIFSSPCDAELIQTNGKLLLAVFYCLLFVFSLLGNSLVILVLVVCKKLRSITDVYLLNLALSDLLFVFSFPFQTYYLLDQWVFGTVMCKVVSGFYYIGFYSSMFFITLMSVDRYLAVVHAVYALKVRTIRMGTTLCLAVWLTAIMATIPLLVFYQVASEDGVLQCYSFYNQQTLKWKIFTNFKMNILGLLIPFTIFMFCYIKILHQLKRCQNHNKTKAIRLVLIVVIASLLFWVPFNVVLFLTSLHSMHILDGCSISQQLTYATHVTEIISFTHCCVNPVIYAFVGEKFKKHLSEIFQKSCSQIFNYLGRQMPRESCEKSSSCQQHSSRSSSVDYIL

[14] = molecular target: C-C chemokine receptor type 5 (Homo sapiens) (UniProt P51681); assay: Binding affinity to CCR5 (unknown origin) at 10 uM by radioligand displacement assay
Chain of C-C chemokine receptor type 5 (Homo sapiens) (P51681 whole entry, looked up): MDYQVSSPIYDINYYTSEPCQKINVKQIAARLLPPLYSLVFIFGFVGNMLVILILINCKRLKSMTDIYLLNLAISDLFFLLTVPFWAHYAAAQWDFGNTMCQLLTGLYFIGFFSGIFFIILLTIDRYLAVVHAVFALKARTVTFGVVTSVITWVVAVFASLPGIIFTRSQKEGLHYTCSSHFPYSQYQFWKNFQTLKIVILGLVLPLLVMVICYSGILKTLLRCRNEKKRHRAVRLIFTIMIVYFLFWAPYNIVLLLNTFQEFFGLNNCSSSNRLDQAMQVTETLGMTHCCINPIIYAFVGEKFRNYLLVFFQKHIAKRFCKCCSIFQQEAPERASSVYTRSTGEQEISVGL

Chain of Cytochrome P450 3A4 (P08684 whole entry): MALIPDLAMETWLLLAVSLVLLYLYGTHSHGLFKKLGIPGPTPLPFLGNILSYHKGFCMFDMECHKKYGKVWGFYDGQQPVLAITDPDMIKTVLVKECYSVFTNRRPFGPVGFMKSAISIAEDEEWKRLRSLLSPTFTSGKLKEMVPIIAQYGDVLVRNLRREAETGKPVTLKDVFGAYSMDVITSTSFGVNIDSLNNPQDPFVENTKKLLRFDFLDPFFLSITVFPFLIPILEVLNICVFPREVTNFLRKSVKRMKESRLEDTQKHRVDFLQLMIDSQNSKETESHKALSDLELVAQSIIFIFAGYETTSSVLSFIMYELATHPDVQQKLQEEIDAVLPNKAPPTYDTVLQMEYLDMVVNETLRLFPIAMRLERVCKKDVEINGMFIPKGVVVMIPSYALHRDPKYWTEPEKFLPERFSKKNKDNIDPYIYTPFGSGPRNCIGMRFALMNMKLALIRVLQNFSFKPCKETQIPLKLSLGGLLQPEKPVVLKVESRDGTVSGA

COc1cc(N2CCN(C(=O)Cn3nc(C(F)(F)F)c(Cl)c3C)CC2)ccc1Cl
IC50 (Cytochrome P450 3A4): > 10 µM
Activity (Rattus norvegicus [1]): Non-toxic
inhibition [2]: inactive
Activity [3]: inactive
inhibition [4]: inactive
inhibition [5]: inactive
Activity (Rattus norvegicus [6]): Non-toxic
inhibition [7]: inactive
inhibition [8]: inactive
inhibition [9]: inactive
Activity (Rattus norvegicus [10]): Non-toxic
inhibition [11]: inactive
Activity [12]: inactive
inhibition [13]: inactive
Activity [14]: inactive
